Counter-ions that a name gives are not always drawn.
Target: T1, YAP-TEAD interaction (human YAP2-His6 (50-114) / human TEAD1-GST (209-426)) (Homo sapiens, UniProt P28347)
T1 construct: GST-TEAD1 (209-426) produced in E. coli; made in house; host or cells: E. coli
Assay: YAP-TEAD AlphaLISA assay
Assay type: binding
Settings: YAP-TEAD AlphaLISA; for Emax: 2 h, maximal % inhibition, read-out: Max Act.; for IC50: 2 h equilibration at room temperature
Method: YAP-TEAD AlphaLISA Assay for IC50 Value Determination.
YAP-TEAD binding and inhibition was assessed by monitoring the engagement of YAP2 peptide (human YAP2-His6 (50-114) produced in E. coli) with TEAD (human TEAD1-GST (GST-TEAD1 (209-426) produced in E. coli) using the AlphaLisa technology (Perkin-Elmer). Specifically, in a 384 well (Axygen) 5 μl of compounds were dispensed in 100% DMSO following a semi log serial dilution, with a top concentration of […] (10 concentrations). A ‘3 partners solution’ was prepared by mixing AlphaScreen Glutathione Donor beads 15 μg/ml (PerkinElmer), Anti-6×His AlphaLisA Acceptor beads 15 μg/ml (PerkinElmer) and Human YAP2 9 nM in 100 mM NaCl, 25 mM Hepes, 0.1% BSA, 0.5% NoNidet®P40 buffer. In the 384 assay plate (Proxiplate, Perkin-Elmer)) 2 μl of compound at each concentration, 6 μl of buffer, 6 μl of hTEAD1-GST 9 nM and 6 μl of ‘3 partner solution’ were mixed. After 2 h equilibration at room temperature in the dark the plates were read on an Envision instrument (Excitation @ 680 nm/Emission @ 570 nm, Perkin Elmer).
Results were expressed as % inhibition=100×((HighControl−Cpd)/(HighControl−LowControl)), were High control is the maximum response obtained with all components and Low control is the basal response obtained with all components without GST-Tead1.
Cpd is the response obtained for test compounds.
IC50 (half maximal inhibitory concentration) was determined by fitting the concentration response curves using a 3-parameter curve fit equation and determining concentration corresponding to 50% inhibition.

T1 sequence (P28347 209-426): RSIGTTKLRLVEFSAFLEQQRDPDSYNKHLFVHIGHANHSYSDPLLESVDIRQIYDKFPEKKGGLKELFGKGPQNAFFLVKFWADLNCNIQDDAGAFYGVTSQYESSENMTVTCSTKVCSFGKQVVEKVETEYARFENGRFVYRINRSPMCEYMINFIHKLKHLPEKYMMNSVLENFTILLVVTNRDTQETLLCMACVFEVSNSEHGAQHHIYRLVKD

Row | Emax | IC50 | Compound
1 | 97% | 84 nM | COc1cc(OC)c2c(c1)C(N(CCN1CCOCC1)/N=C/c1ccc(O)c(OC)c1)=NS2(=O)=O [Example 18, 4-[(E)-[(5,7-dimethoxy-1,1-dioxo-1,2-benzothiazol-3-yl)-(2-morpholino-ethyl)hydrazono]methyl]-2-methoxy-phenol hydrochloride]
2 | 96% | 11600 nM | COc1cc(/C=N/N(CC(=O)NCCO)C2=NS(=O)(=O)c3ccccc32)ccc1O [Example 9, 2-[(1,1-dioxo-1,2-benzothiazol-3-yl)-[(E)-(4-hydroxy-3-methoxy-phenyl)methyleneamino]amino]-N-(2-hydroxyethyl)acetamide]
3 | 91% | 891 nM | COc1cc(/C=N/N(CCO)C2=NS(=O)(=O)c3ccc(C)cc32)ccc1O [Example 27, 4-[(E)-[2-hydroxyethyl-(5-methyl-1,1-dioxo-1,2-benzothiazol-3-yl)hydrazono]methyl]-2-methoxy-phenol]
4 | 95% | 139 nM | COc1cc(/C=N/N(CCN2CCOCC2)C2=NS(=O)(=O)c3c(OC)cc(C)cc32)ccc1O [Example 32, 2-methoxy-4-[(E)-[(7-methoxy-5-methyl-1,1-dioxo-1,2-benzothiazol-3-yl)-(2-morpholinoethyl)hydrazono]methyl]phenol hydrochloride]
5 | 90% | 766 nM | COc1cc(/C=N/N(C)C2=NS(=O)(=O)c3cc(C)ccc32)ccc1O [Example 33, 2-methoxy-4-[(E)-[methyl-(6-methyl-1,1-dioxo-1,2-benzothiazol-3-yl)hydrazono]methyl]phenol]
6 | 95% | 2120 nM | COc1ccc2c(c1)C(N(CCCN1CCOCC1)/N=C/c1ccc(O)c(OC)c1)=NS2(=O)=O [Example 13, 2-methoxy-4-[(E)-[(5-methoxy-1,1-dioxo-1,2-benzothiazol-3-yl)-(3-morpholinopropyl)hydrazono]methyl]phenol hydrochloride]
7 | 97% | 615 nM | COc1cc(/C=N/N(CCN2CCOCC2)C2=NS(=O)(=O)c3ccccc32)ccc1O [Example 4, 4-[(E)-[(1,1-dioxo-1,2-benzothiazol-3-yl)-(2-morpholinoethyl)hydrazono]methyl]-2-methoxy-phenol hydrochloride]
8 | 99% | 305 nM | COc1cc(/C=N/N(CCN2CCOCC2)C2=NS(=O)(=O)c3c(OC)cccc32)ccc1O [Example 23, 2-methoxy-4-[(E)-[(7-methoxy-1,1-dioxo-1,2-benzothiazol-3-yl)-(2-morpholinoethyl)hydrazono]methyl]phenol hydrochloride]
9 | 91% | 16200 nM | COc1ccc2c(c1)S(=O)(=O)N=C2N(C)/N=C/c1ccc(O)c(OC)c1 [Example 40, 2-methoxy-4-[(E)-[(6-methoxy-1,1-dioxo-1,2-benzothiazol-3-yl)-methyl hydrazono]methyl]phenol]
10 | 92% | 5000 nM | COCCCN(/N=C/c1ccc(O)c(OC)c1)C1=NS(=O)(=O)c2ccccc21 [Example 10]
11 | 95% | 399 nM | COc1cc(/C=N/N(CCN2CCOCC2)C2=NS(=O)(=O)c3ccc(C)cc32)ccc1O [Example 26, 2-methoxy-4-[(E)-[(5-methyl-1,1-dioxo-1,2-benzothiazol-3-yl)-(2-morpholinoethyl)hydrazono]methyl]phenol hydrochloride]
12 | 84% | 2470 nM | COc1cc(/C=N/N(C)C2=NS(=O)(=O)c3ccc(F)cc32)ccc1O [Example 42, 4-[(E)-[(5-fluoro-1,1-dioxo-1,2-benzothiazol-3-yl)-methyl-hydrazono]-methyl]-2-methoxy-phenol]
13 | 91% | 130 nM | COc1cc(/C=N/N(CCO)C2=NS(=O)(=O)c3c(OC)cc(C)cc32)ccc1O [Example 29, 4-[(E)-[2-hydroxyethyl-(7-methoxy-5-methy-1,1-dioxo-1,2-benzothiazol-3-yl) hydrazono]methyl]-2-methoxy-phenol]
14 | 86% | 95 nM | COc1cc(OC)c2c(c1)C(N(C)/N=C/c1ccc(O)c(OC)c1)=NS2(=O)=O [Example 16, 4-[(E)-[(5,7-dimethoxy-1,1-dioxo-1,2-benzothiazol-3-yl)-methyl-hydrazono]methyl]-2-methoxy-phenol]
15 | 61% | 62200 nM | COc1cc(/C=N/N(C)C2=NS(=O)(=O)c3cc(-c4ccccc4)ccc32)ccc1O [Example 39, 4-[(E)-[(1,1-dioxo-6-phenyl-1,2-benzothiazol-3-yl)-methyl-hydrazono]-methyl]-2-methoxy-phenol]
16 | 77% | 354 nM | COc1ccc2c(c1)C(N(C)/N=C/c1ccc(O)c(OC)c1)=NS2(=O)=O [Example 35, 2-methoxy-4-[(E)-[(5-methoxy-1,1-dioxo-1,2-benzothiazol-3-yl)-methyl-hydrazono]methyl]phenol]
17 | 89% | 2890 nM | COCCN(/N=C/c1ccc(O)c(OC)c1)C1=NS(=O)(=O)c2ccc(OC)cc21 [Example 15, 2-methoxy-4-[(E)-[(5-methoxy-1,1-dioxo-1,2-benzothiazol-3-yl)-(2-methoxyethyl)hydrazono]methyl]phenol]
18 | 92% | 902 nM | COCCN(/N=C/c1ccc(O)c(OC)c1)C1=NS(=O)(=O)c2c(OC)cccc21 [Example 24, 2-methoxy-4-[(E)-[(7-methoxy-1,1-dioxo-1,2-benzothiazol-3-yl)-(2-methoxyethyl)hydrazono]methyl]phenol]
19 | 94% | 2650 nM | COCCN(/N=C/c1ccc(O)c(OC)c1)C1=NS(=O)(=O)c2ccc(C)cc21 [Example 28, 2-methoxy-4-[(E)-[2-methoxyethyl-(5-methyl-1,1-dioxo-1,2-benzothiazol-3-yl) hydrazono]methyl]phenol]
20 | 92% | 626 nM | COCCN(/N=C/c1ccc(O)c(OC)c1)C1=NS(=O)(=O)c2c(OC)cc(OC)cc21 [Example 19, 4-[(E)-[(5,7-dimethoxy-1,1-dioxo-1,2-benzothiazol-3-yl)-(2-methoxyethyl) hydrazono]methyl]-2-methoxy-phenol]
21 | 85% | 5740 nM | COc1cc(/C=N/N(C)C2=NS(=O)(=O)c3cc(F)ccc32)ccc1O [Example 41, 4-[(E)-[(6-fluoro-1,1-dioxo-1,2-benzothiazol-3-yl)-methyl-hydrazono]-methyl]-2-methoxy-phenol]
22 | 99% | 105000 nM | COc1cc(/C=N/N(C2=NS(=O)(=O)c3ccccc32)c2ccc(C(=O)O)cc2)ccc1O [Example 38, 4-[(1,1-dioxo-1,2-benzothiazol-3-yl)-[(E)-(4-hydroxy-3-methoxy-phenyl)methyleneamino]amino]benzoic acid]
23 | 89% | 123 nM | COc1cc(/C=N/N(C)C2=NS(=O)(=O)c3c(OC)cccc32)ccc1O [Example 21, 2-methoxy-4-[(E)-[(7-methoxy-1,1-dioxo-1,2-benzothiazol-3-yl)-methyl-hydrazono]methyl]phenol]
24 | 94% | 1100 nM | COc1cc(/C=N/N(CCC(=O)O)C2=NS(=O)(=O)c3ccccc32)ccc1O [Example 8, 3-[(1,1-dioxo-1,2-benzothiazol-3-yl)-[(E)-(4-hydroxy-3-methoxy-phenyl)methyleneamino]amino]propanoic acid]
25 | 90% | 568 nM | COc1cc(/C=N/N(C)C2=NS(=O)(=O)c3ccc(C)cc32)ccc1O [Example 25, 2-methoxy-4-[(E)-[methyl-(5-methyl-1,1-dioxo-1,2-benzothiazol-3-yl)hydrazono]methyl]phenol]
26 | 95% | 7040 nM | COc1cc(/C=N/N(CCCN(C)C)C2=NS(=O)(=O)c3ccccc32)ccc1O [Example 6, 4-[(E)-[3-(dimethylamino)propyl-(1,1-dioxo-1,2-benzothiazol-3-yl)hydrazono]methyl]-2-methoxy-phenol hydrochloride]
27 | 92% | 131 nM | COc1cc(/C=N/N(C)C2=NS(=O)(=O)c3c(OC)cc(C)cc32)ccc1O [Example 31, 2-methoxy-4-[(E)-[(7-methoxy-5-methyl-1,1-dioxo-1,2-benzothiazol-3-yl)-methyl-hydrazono]methyl]phenol]
28 | 97% | 83 nM | COc1cc(/C=N/N(CCO)C2=NS(=O)(=O)c3c(OC)cccc32)ccc1O [Example 22, 4-[(E)-[2-hydroxyethyl-(7-methoxy-1,1-dioxo-1,2-benzothiazol-3-yl) hydrazono]methyl]-2-methoxy-phenol]
29 | 94% | 475 nM | COc1ccc2c(c1)C(N(CCO)/N=C/c1ccc(O)c(OC)c1)=NS2(=O)=O [Example 11, 4-[(E)-[2-hydroxyethyl-(5-methoxy-1,1-dioxo-1,2-benzothiazol-3-yl) hydrazono]methyl]-2-methoxy-phenol]

Source: US10414739B2, “Compounds as inhibitors of the YAP/TAZ-TEAD interaction and their use in the treatment of malignant mesothelioma” (INVENTIVA, priority 2015, dated 2019)
